Measurements from US8329913B2, “Carbazole derivative, solvate thereof, or pharmaceutically acceptable salt thereof” (Zeria Pharmaceutical Co., Ltd., priority 2004, dated 2012).

Target: T1, human PPARα (Homo sapiens, UniProt Q07869)
T1 construct: 1.6 kb of DNA fragment including human PPARα gene was collected from the gel; expressed in transfected cells; host or cells: CV-1 cells, transient transfection with pCI-hPPARa, pCI-hRXRa and the reporter pGL3-PPRE3-TK
T1 sequence (Q07869 1-468): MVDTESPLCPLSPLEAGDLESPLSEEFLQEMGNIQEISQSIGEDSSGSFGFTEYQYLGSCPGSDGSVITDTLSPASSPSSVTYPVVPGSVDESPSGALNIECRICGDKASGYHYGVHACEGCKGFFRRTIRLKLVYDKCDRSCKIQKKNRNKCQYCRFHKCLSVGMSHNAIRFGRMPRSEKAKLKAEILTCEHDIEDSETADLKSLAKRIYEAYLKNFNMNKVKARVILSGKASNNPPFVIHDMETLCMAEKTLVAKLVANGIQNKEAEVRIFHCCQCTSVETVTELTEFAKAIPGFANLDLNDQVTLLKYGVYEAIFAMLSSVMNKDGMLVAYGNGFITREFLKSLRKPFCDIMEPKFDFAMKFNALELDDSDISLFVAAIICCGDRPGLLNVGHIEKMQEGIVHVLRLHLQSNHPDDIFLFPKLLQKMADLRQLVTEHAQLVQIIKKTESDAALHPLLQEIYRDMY
T1 sequence (P19793 1-462 partner): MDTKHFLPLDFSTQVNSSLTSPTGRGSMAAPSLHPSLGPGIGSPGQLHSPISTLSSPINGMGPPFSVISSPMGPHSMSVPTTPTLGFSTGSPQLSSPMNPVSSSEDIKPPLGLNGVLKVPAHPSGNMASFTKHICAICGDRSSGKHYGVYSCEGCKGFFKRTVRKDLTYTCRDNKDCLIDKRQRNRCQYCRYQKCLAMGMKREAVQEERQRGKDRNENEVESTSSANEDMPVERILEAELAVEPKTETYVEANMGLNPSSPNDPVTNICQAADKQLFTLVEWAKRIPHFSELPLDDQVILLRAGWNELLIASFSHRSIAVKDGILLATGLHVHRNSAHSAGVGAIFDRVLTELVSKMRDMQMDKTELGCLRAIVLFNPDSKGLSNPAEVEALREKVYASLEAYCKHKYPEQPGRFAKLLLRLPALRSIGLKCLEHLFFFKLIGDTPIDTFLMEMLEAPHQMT
Assay: Human PPARα agonist assay (luciferase reporter in transfected CV-1 cells)
Assay type: cell-based
Settings: at 1 μM test compound alone; 100% = 1 μM stimulant (GW7647) only; CV-1 cells expressing human PPARα and RXRα
Procedure: CV-1 cells (96 well plate), where human PPARα and RXRα has expressed in the transient transfection of reporter plasmid (see reference 6a) were washed once with PBS (100 μL/well), and then supplemented with 100 μL/well of DMEM medium including 10% of fetal bovine serum to which test compounds at final concentrations of 10 nM, 30 nM, 100 nM, 300 nM, 1 μM, and 3 μM, as well as GW7647 (not limited to GW7647 shown as an example, but may be any PPARα agonist) at a final concentration of 1 nM as a stimulant were added, and incubated in a 5% CO2 incubator at 37° C. for 24 hours. After removing the medium, the CV-1 cells were washed once with PBS (100 μL/well), and supplemented with 60 μL/well of 1× Passive Lysis Buffer (manufactured by Promega Corporation). The CV-1 cells were incubated at room temperature for 30 minutes, stirred, and then by using Dual-Luciferase Reporter Assay System (manufactured by Promega Corporation), luciferase activities of firefly and renilla were measured using 1420 ARVO Multilabel Counter (manufactured by Wallac Oy). Also, the same experiments as that described above were respectively carried out for the cases where only the above-mentioned stimulant (10 nM, 100 nM, 1 μM) were used, where only the above-mentioned test compounds were used, or where neither was used (nonsupplemented), and luciferase activities of firefly and renilla were measured. Values corrected by dividing the firefly luciferase activities by the renilla luciferase activities were calculated as specific activities and used for evaluations. […]
Also, human PPARα agonist activities of the test compounds were evaluated by using a percentage (activity) where the specific activity when nonsupplemented is regarded as 0% and the specific activity in case only 1 μM stimulant was added is regarded as 100%, from the specific activity in case only the test compound is used.
CV-1 cells were cultured in DMEM medium (manufactured by Invitrogen Corporation) including 10% fetal bovine serum (manufactured by Dainippon Pharmaceutical Co., Ltd.) in 225T-Flask (manufactured by Corning Costar). The cells were detached by 0.5 g/L trypsin-0.2 g/L EDTA (ethylene diamine tetra-acetic acid) (manufactured by Invitrogen Corporation), and then suspended in the DMEM medium including 10% fetal bovine serum to a cell concentration of 2×10^5 cells/mL. Thereafter, the cells were seeded into 96 well plate at 2×10^4 cells/0.1 mL/well, incubated in the CO2 incubator at 37° C. overnight, and then the plasmids prepared by the above-mentioned reference 2a, reference 3a, and reference 4a were transfected into cells by using a lipofectamine reagent (manufactured by Invitrogen Corporation) according to the attached manual.
Namely, after CV-1 cells were cultured overnight, the cells were washed with PBS (100 μL/well). Thereafter the cells were incubated for 5 hours at 37° C./5% CO2 in the MEM medium (manufactured by Invitrogen Corporation) including 430 ng/mL of human PPARα expression plasmid (pCI-hPPARa) prepared by the reference 2a, 430 ng/mL of human RXRα expression plasmid (pCI-hRXRa) prepared by the reference 3a, and 140 ng/mL of the reporter plasmid (pGL3-PPRE3-TK) prepared by the reference 4a, 10 ng/mL of phRL-TK vector (manufactured by Promega Corporation) and 2 μL/mL of lipofectamine.

Structure (SMILES)	Human PPARα agonist activities, Activity % (at 1 μM) [%]
COc1cc(Cn2c3ccccc3c3c(OC(C)(C)C(=O)O)cccc32)ccc1OCc1nc(-c2ccccc2)oc1C [Example 3, 2-{9-[3-methoxy-4-((5-methyl-2-phenyl-oxazole-4-yl)methoxy)-benzyl]-9H-carbazole-4-yloxy}-2-methyl-propionic acid]	43
COc1cc(Cn2c3ccccc3c3c(OC(C)(C)C(=O)O)cccc32)ccc1OCc1nc(-c2cccs2)oc1C [Example 8, 2-{9-[3-methoxy-4-((5-methyl-2-(thiophene-2-yl)-oxazole-4-yl)methoxy)-benzyl]-9H-carbazole-4-yloxy}-2-methyl-propionic acid]	60
COc1cc(Cn2c3ccccc3c3c(OC(C)(C)C(=O)[O-])cccc32)ccc1OCc1nc(-c2cccs2)oc1C.[Na+] [Example 32]	66
COc1cc(Cn2c3ccccc3c3c(OCC(C)(C)C(=O)O)cccc32)ccc1OCc1nc(-c2cccs2)oc1C [Example 24, 3-{9-[3-methoxy-4-((5-methyl-2-(thiophene-2-yl)-oxazole-4-yl)methoxy)-benzyl]-9H-carbazole-4-yloxy}-2,2-dimethyl-propionic acid]	64
COc1cc(Cn2c3ccccc3c3c(OCC(C)(C)C(=O)O)cccc32)ccc1OCc1nc(-c2ccco2)oc1C [Example 23, 3-{9-[4-((2-(furan-2-yl)-5-methyl-oxazole-4-yl)methoxy)-3-methoxy-benzyl]-9H-carbazole-4-yloxy}-2,2-dimethyl-propionic acid]	69
CC[C@H](Oc1cccc2c1c1ccccc1n2Cc1ccc(OCc2nc(-c3ccccc3)oc2C)c(OC)c1)C(=O)[O-].[Na+] [Example 38, sodium (S)-(+)-2-{9-[3-methoxy-4-((5-methyl-2-phenyl-oxazole-4-yl)methoxy)-benzyl]-9H-carbazole-4-yloxy}butyrate]	32
COc1cc(Cn2c3ccccc3c3c(OCC(C)(C)C(=O)O)cccc32)ccc1OCc1nc(-c2ccncc2)oc1C [Example 25, 3-{9-[3-methoxy-4-((5-methyl-2-pyridine-4-yl-oxazole-4-yl)methoxy)-benzyl]-9H-carbazole-4-yloxy}-2,2-dimethyl-propionic acid]	47
COc1cc(Cn2c3ccccc3c3c(OC(C)(C)C(=O)O)cccc32)ccc1OCc1sc(-c2ccccc2)nc1C [Example 16, 2-{9-[3-methoxy-4-((4-methyl-2-phenyl-thiazole-5-yl)methoxy)-benzyl]-9H-carbazole-4-yloxy}-2-methyl-propionic acid]	56
COc1cc(Cn2c3ccccc3c3c(OCC(C)(C)C(=O)O)cccc32)ccc1OCc1nc(-c2ccccc2)oc1C [Example 22, 3-{9-[3-methoxy-4-((5-methyl-2-phenyl-oxazole-4-yl)methoxy)-benzyl]-9H-carbazole-4-yloxy}-2,2-dimethyl-propionic acid]	40
CCC(Oc1cccc2c1c1ccccc1n2Cc1ccc(OCc2nc(-c3ccccc3)oc2C)c(OC)c1)C(=O)O (racemic) [Example 5, (±)-2-{9-[3-methoxy-4-((5-methyl-2-phenyl-oxazole-4-yl)methoxy)-benzyl]-9H-carbazole-4-yloxy}butyric acid]	27
CCC(Oc1cccc2c1c1ccccc1n2Cc1ccc(OCc2nc(-c3ccccc3)oc2C)c(OC)c1)C(=O)[O-].[Na+] (centres unmarked) [Example 31]	21
COc1cc(Cn2c3ccccc3c3c(OC(C)(C)C(=O)O)cccc32)ccc1OCc1nc(-c2ccccc2)sc1C [Example 15, 2-{9-[3-methoxy-4-((5-methyl-2-phenyl-thiazole-4-yl)methoxy)-benzyl]-9H-carbazole-4-yloxy}-2-methyl-propionic acid]	73
COc1cc(Cn2c3ccccc3c3c(OC(C)(C)C(=O)[O-])cccc32)ccc1OCc1nc(-c2ccccc2)oc1C.[Na+] [Example 28, sodium 2-{9-[3-methoxy-4-((5-methyl-2-phenyl-oxazole-4-yl)methoxy)-benzyl]-9H-carbazole-4-yloxy}-2-methyl-propionate]	56
Cc1oc(-c2ccccc2)nc1COc1ccc(Cn2c3ccccc3c3c(OC(C)(C)C(=O)O)cccc32)cc1 [Example 13, 2-methyl-2-{9-[4-((5-methyl-2-phenyl-oxazole-4-yl)methoxy)-benzyl]-9H-carbazole-4-yloxy}propionic acid]	37
COc1cc(Cn2c3ccccc3c3c(OCC(C)(C)C(=O)[O-])cccc32)ccc1OCc1nc(-c2ccccc2)oc1C.[Na+] [Example 34]	41
COc1cc(Cn2c3ccccc3c3c(OC(C)(C)C(=O)O)cccc32)ccc1OCc1nc(-c2ccncc2)oc1C [Example 9, 2-{9-[3-methoxy-4-((5-methyl-2-(pyridine-4-yl)-oxazole-4-yl)methoxy)-benzyl]-9H-carbazole-4-yloxy}-2-methyl-propionic acid]	27
COc1cc(Cn2c3ccccc3c3c(OCCC(C)C(=O)O)cccc32)ccc1OCc1nc(-c2ccccc2)oc1C (racemic) [Example 27, (±)-4-{9-[3-methoxy-4-((5-methyl-2-phenyl-oxazole-4-yl)methoxy)-benzyl]-9H-carbazole-4-yloxy}-2-methyl-butyric acid]	23
COc1cc(Cn2c3ccccc3c3c(OC(C)C(=O)O)cccc32)ccc1OCc1nc(-c2ccccc2)oc1C (racemic) [Example 4, (±)-2-{9-[3-methoxy-4-((5-methyl-2-phenyl-oxazole-4-yl)methoxy)-benzyl]-9H-carbazole-4-yloxy}propionic acid]	21
COc1cc(Cn2c3ccccc3c3c(OC(C)C(=O)[O-])cccc32)ccc1OCc1nc(-c2ccccc2)oc1C.[Na+] (racemic) [Example 30]	35
COc1cc(Cn2c3ccccc3c3c(O[C@H](C)C(=O)[O-])cccc32)ccc1OCc1nc(-c2ccccc2)oc1C.[Na+] [Example 43, sodium (R)-2-{9-[3-methoxy-4-((5-methyl-2-phenyl-oxazole-4-yl)methoxy)-benzyl]-9H-carbazole-4-yloxy}propionate]	35
